Test results: patent US10442804B2, “Compounds for the treatment of hepatitis B virus infection” (Gilead Sciences, Inc., priority 2017, dated 2019)
Like-named read-outs stand apart in the source and are kept apart here.

Key:
MT-4 cytotoxicity assay = assay type: cell-based, human; conditions: human
[1] = system: HBV-infected NTCP-HepG2 cells, secreted HBsAg; test: microbe, parasite or virus in culture; assay type: cell-based, hepatitis B virus (genotype D, AD38-derived); conditions: Hepatitis B virus, 120 h, secreted HBsAg in supernatant after 5 days; geometric mean of minimum four determinations; read-out: NTCP HBsAg EC50
Outline: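 NTCP-HepG2 cells were infected with genotype D HBV at 4000 genome equivalents/cell, then seeded 4 days post-infection with serially diluted compounds (1% DMSO) for 5 days. Supernatant HBsAg was measured by chemiluminescent MSD immunoassay. EC50 from four-parameter fit, geometric mean of ≥4 determinations.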

[2] = five days, Cell Titer Glo luminescence, read-out: MT-4 CC50

| Compound | CC50 at 5 days (MT-4 cytotoxicity assay; [2]) | EC50 [1] | CC50 at 5 days (MT-4 cytotoxicity assay; MT-4 CC50) |
| --- | --- | --- | --- |
| COCCCOc1cc2c(cc1S(C)(=O)=O)-c1cc(=O)c(C(=O)O)cn1N1[C@@H]2CCC1(C)C [Example 69, (R)-12-(3-methoxypropoxy)-3,3-dimethyl-11-(methylsulfonyl)-8-oxo-2,3,8,13b-tetrahydro-1H-pyrido[2,1-a]pyrrolo[1,2-c]phthalazine-7-carboxylic acid] | > 10000 nM | 52 nM |  |
| CC1(C)CC[C@@H]2c3cc(C#CC(C)(C)S(C)(=O)=O)c(OC(F)(F)F)cc3-c3cc(=O)c(C(=O)O)cn3N21 [Example 89, (R)-3,3-dimethyl-12-(3-methyl-3-(methylsulfonyl)but-1-yn-1-yl)-8-oxo-11-(trifluoromethoxy)-2,3,8,13b-tetrahydro-1H-pyrido[2,1-a]pyrrolo[1,2-c]phthalazine-7-carboxylic acid] | > 10000 nM | 13.7 nM |  |
| CC1(C)CC[C@@H]2c3cc(OCCCOC4COC4)c(Cl)cc3-c3cc(=O)c(C(=O)O)cn3N21 [Example 98, (R)-11-chloro-3,3-dimethyl-12-(3-(oxetan-3-yloxy)propoxy)-8-oxo-2,3,8,13b-tetrahydro-1H-pyrido[2,1-a]pyrrolo[1,2-c]phthalazine-7-carboxylic acid] | > 10000 nM | 2.2 nM |  |
| CC1(C)CC[C@@H]2c3cc(OCC4COC4)c(C4CC4)cc3-c3cc(=O)c(C(=O)O)cn3N21 [Example 66, (R)-11-cyclopropyl-3,3-dimethyl-12-(oxetan-3-ylmethoxy)-8-oxo-2,3,8,13b-tetrahydro-1H-pyrido[2,1-a]pyrrolo[1,2-c]phthalazine-7-carboxylic acid] | > 10000 nM | 0.97 nM |  |
| CCOCCCOc1cc2c(cc1OC)-c1cc(=O)c(C(=O)O)cn1N1[C@@H]2CCC1(C)C [Example 62, (R)-12-(3-ethoxypropoxy)-11-methoxy-3,3-dimethyl-8-oxo-2,3,8,13b-tetrahydro-1H-pyrido[2,1-a]pyrrolo[1,2-c]phthalazine-7-carboxylic acid] | > 10000 nM | 0.67 nM |  |
| COc1cc2c(cc1-c1cnn(C(F)F)c1)[C@H]1CCC(C)(C)N1n1cc(C(=O)O)c(=O)cc1-2 [Example 44, (R)-12-(1-(Difluoromethyl)-1H-pyrazol-4-yl)-11-methoxy-3,3-dimethyl-8-oxo-2,3,8,13b-tetrahydro-1H-pyrido[2,1-a]pyrrolo[1,2-c]phthalazine-7-carboxylic acid] | 3000 nM | 5.5 nM |  |
| COCCCOc1cc2c(cc1Cl)-c1cc(=O)c(C(=O)O)cn1N1[C@H](C)CC[C@H]21 (single isomer, unassigned) [Example 7] | > 10000 nM | 32 nM |  |
| COCCCOc1cc2c(cc1Cl)-c1cc(=O)c(C(=O)O)cn1N1CCC(C)(C)[C@@H]21 (single isomer, unassigned) [Example 48] | 2200 nM | > 1000 nM |  |
| CCc1cc2c(cc1OCCCOC)[C@H]1CCC(C)(C)N1n1cc(C(=O)O)c(=O)cc1-2 [Example 63, (R)-11-Ethyl-12-(3-methoxypropoxy)-3,3-dimethyl-8-oxo-2,3,8,13b-tetrahydro-1H-pyrido[2,1-a]pyrrolo[1,2-c]phthalazine-7-carboxylic acid] | > 10000 nM | 0.34 nM |  |
| COCCCOc1cc2c(cc1C1CC1)-c1cc(=O)c(C(=O)O)cn1N1[C@@H]2COCC1(C)C [Example 101, (S)-12-cyclopropyl-13-(3-methoxypropoxy)-4,4-dimethyl-9-oxo-3,4,9,14b-tetrahydro-1H-[1,4]oxazino[3,4-a]pyrido[1,2-c]phthalazine-8-carboxylic acid] | 8200 nM | 0.7 nM |  |
| O=C(O)c1cn2c(cc1=O)-c1cc(Cl)c(-c3cnn(C4COC4)c3)cc1[C@H]1CCC3(CC3)N12 [Example 86, (R)-11′-chloro-12′-(1-(oxetan-3-yl)-1H-pyrazol-4-yl)-8′-oxo-1′,2′,8′,13b′-tetrahydrospiro[cyclopropane-1,3′-pyrido[2,1-a]pyrrolo[1,2-c]phthalazine]-7′-carboxylic acid] |  | 24.8 nM | > 10000 nM |
| COc1cc2c(cc1OCCCOC(F)(F)F)[C@H]1CCC(C)(C)N1n1cc(C(=O)O)c(=O)cc1-2 [Example 58, (R)-11-methoxy-3,3-dimethyl-8-oxo-12-(3-(trifluoromethoxy)propoxy)-2,3,8,13b-tetrahydro-1H-pyrido[2,1-a]pyrrolo[1,2-c]phthalazine-7-carboxylic acid] | 9300 nM | 4.8 nM |  |
| COc1cc2c(cc1C#CC(C)(C)OC)[C@H]1CCC(C)(C)N1n1cc(C(=O)O)c(=O)cc1-2 [Example 43] | > 10000 nM | 7.6 nM |  |
| COCc1cc2c(cc1OCCCO)[C@H]1CCC(C)(C)N1n1cc(C(=O)O)c(=O)cc1-2 [Compound 111, (R)-12-(3-hydroxypropoxy)-11-(methoxymethyl)-3,3-dimethyl-8-oxo-2,3,8,13b-tetrahydro-1H-pyrido[2,1-a]pyrrolo[1,2-c]phthalazine-7-carboxylic acid] | > 10000 nM | 32.2 nM |  |
| COCC12CC(COc3cc4c(cc3OC(F)F)-c3cc(=O)c(C(=O)O)cn3N3[C@@H]4CCC3(C)C)(C1)C2 [Compound 105, (R)-11-(difluoromethoxy)-12-((3-(methoxymethyl)bicyclo[1.1.1]pentan-1-yl)methoxy)-3,3-dimethyl-8-oxo-2,3,8,13b-tetrahydro-1H-pyrido[2,1-a]pyrrolo[1,2-c]phthalazine-7-carboxylic acid] | > 10000 nM | 1.4 nM |  |
| COCCCOc1cc2c(cc1OC(C)(C)C)-c1cc(=O)c(C(=O)O)cn1N1[C@H]2CCC1(C)C [Example 26, (S)-11-(tert-butoxy)-12-(3-methoxypropoxy)-3,3-dimethyl-8-oxo-2,3,8,13b-tetrahydro-1H-pyrido[2,1-a]pyrrolo[1,2-c]phthalazine-7-carboxylic acid] | > 10000 nM | > 1000 nM |  |
| COc1cc2c(cc1Oc1ncccn1)[C@H]1CCC(C)(C)N1n1cc(C(=O)O)c(=O)cc1-2 [Example 41, (R)-11-methoxy-3,3-dimethyl-8-oxo-12-(pyrimidin-2-yloxy)-2,3,8,13b-tetrahydro-1H-pyrido[2,1-a]pyrrolo[1,2-c]phthalazine-7-carboxylic acid] | > 10000 nM | 120 nM |  |
| COc1cc2c(cc1OCCCOCC(F)(F)F)[C@H]1CCC(C)(C)N1n1cc(C(=O)O)c(=O)cc1-2 [Example 60, (R)-11-methoxy-3,3-dimethyl-8-oxo-12-(3-(2,2,2-trifluoroethoxy)propoxy)-2,3,8,13b-tetrahydro-1H-pyrido[2,1-a]pyrrolo[1,2-c]phthalazine-7-carboxylic acid] | > 10000 nM | 1.2 nM |  |
| COCCCOc1cc2c(cc1Cl)-c1cc(=O)c(C(=O)O)cn1N1CC(C)(C)C[C@H]21 (single isomer, unassigned) [Example 29] | > 10000 nM | 14 nM |  |
| COCc1cc2c(cc1OCCn1nc3ccccn3c1=O)[C@H]1CCC(C)(C)N1n1cc(C(=O)O)c(=O)cc1-2 [Example 95, (R)-11-(methoxymethyl)-3,3-dimethyl-8-oxo-12-(2-(3-oxo-[1,2,4]triazolo[4,3-a]pyridin-2(3H)-yl)ethoxy)-2,3,8,13b-tetrahydro-1H-pyrido[2,1-a]pyrrolo[1,2-c]phthalazine-7-carboxylic acid] | > 10000 nM | 4.6 nM |  |
| COCc1cc2c(cc1OCCCOC1COC1)[C@H]1CCC(C)(C)N1n1cc(C(=O)O)c(=O)cc1-2 [Example 94, (R)-11-(methoxymethyl)-3,3-dimethyl-12-(3-(oxetan-3-yloxy)propoxy)-8-oxo-2,3,8,13b-tetrahydro-1H-pyrido[2,1-a]pyrrolo[1,2-c]phthalazine-7-carboxylic acid] | > 10000 nM | 6 nM |  |
| CC(C)(O)C#Cc1cc2c(cc1C1CC1)-c1cc(=O)c(C(=O)O)cn1N1[C@@H]2CCC1(C)C [Example 71, (R)-11-cyclopropyl-12-(3-hydroxy-3-methylbut-1-yn-1-yl)-3,3-dimethyl-8-oxo-2,3,8,13b-tetrahydro-1H-pyrido[2,1-a]pyrrolo[1,2-c]phthalazine-7-carboxylic acid] | > 10000 nM | 2.5 nM |  |
| COCc1cc2c(cc1C#CC(C)(C)O)[C@H]1CCC(C)(C)N1n1cc(C(=O)O)c(=O)cc1-2 [Example 70, (R)-12-(3-hydroxy-3-methylbut-1-yn-1-yl)-11-(methoxymethyl)-3,3-dimethyl-8-oxo-2,3,8,13b-tetrahydro-1H-pyrido[2,1-a]pyrrolo[1,2-c]phthalazine-7-carboxylic acid] | > 10000 nM | 21.1 nM |  |
| COCCCOc1cc2c(cc1OC(F)F)-c1cc(=O)c(C(=O)O)cn1N1[C@@H]2CCC1(C)C (single isomer, unassigned) [Example 19] | > 10000 nM | 1.2 nM |  |
| COc1cc2c(cc1C#CC(C)(C)S(=O)(=O)C1CC1)[C@H]1CCC(C)(C)N1n1cc(C(=O)O)c(=O)cc1-2 [Example 84, (R)-12-(3-(cyclopropylsulfonyl)-3-methylbut-1-yn-1-yl)-11-methoxy-3,3-dimethyl-8-oxo-2,3,8,13b-tetrahydro-1H-pyrido[2,1-a]pyrrolo[1,2-c]phthalazine-7-carboxylic acid] | > 10000 nM | 11.2 nM |  |
| COCCCOc1cc2c(cc1Cl)-c1cc(=O)c(C(=O)O)cn1N1[C@@H]2CC[C@@H]1C (single isomer, unassigned) [Example 10] | > 10000 nM | 5.7 nM |  |
